We go through 14 compounds from article PMC8684776, “Discovery and characterization of potent And‐1 inhibitors for cancer treatment” (Clinical and Translational Medicine, 2021).

Where a name gives a salt, the structure may show the parent alone. Read-outs that look alike come from different tables or passages of the source.

Data set [1] addresses T1, And‐1 (Homo sapiens, UniProt O75717).
T1 construct: expressed in transfected cells
T1 sequence (O75717 1-1129): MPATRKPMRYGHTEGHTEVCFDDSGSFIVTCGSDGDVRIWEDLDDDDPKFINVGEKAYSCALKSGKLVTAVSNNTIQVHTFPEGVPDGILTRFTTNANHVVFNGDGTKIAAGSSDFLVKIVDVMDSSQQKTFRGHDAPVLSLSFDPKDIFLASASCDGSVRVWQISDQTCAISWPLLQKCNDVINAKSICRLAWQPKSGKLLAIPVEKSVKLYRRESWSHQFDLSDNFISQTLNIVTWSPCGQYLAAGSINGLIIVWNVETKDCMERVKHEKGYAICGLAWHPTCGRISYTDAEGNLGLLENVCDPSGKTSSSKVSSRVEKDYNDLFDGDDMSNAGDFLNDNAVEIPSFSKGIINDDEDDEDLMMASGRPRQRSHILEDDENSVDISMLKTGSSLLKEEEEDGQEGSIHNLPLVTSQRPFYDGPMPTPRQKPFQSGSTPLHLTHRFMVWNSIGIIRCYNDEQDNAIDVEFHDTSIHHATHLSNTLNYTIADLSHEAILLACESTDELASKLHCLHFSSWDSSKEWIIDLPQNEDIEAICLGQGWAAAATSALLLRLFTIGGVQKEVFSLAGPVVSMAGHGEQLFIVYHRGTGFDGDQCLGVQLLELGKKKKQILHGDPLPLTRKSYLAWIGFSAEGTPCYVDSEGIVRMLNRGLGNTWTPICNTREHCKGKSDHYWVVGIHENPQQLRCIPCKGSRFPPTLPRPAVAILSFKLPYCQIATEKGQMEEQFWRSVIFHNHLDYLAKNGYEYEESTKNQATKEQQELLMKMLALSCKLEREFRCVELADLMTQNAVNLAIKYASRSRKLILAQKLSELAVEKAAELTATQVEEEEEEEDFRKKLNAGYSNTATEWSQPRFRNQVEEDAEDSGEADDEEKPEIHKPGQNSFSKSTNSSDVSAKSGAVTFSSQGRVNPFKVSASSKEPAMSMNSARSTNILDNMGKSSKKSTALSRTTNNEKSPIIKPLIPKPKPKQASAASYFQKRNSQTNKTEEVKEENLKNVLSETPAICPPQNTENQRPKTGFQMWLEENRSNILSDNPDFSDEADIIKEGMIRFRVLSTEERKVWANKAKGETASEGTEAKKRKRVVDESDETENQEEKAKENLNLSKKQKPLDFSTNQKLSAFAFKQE
Briefly: And‐1 luciferase reporter assay (qHTS of LOPAC). Type of data set: cell-based. The procedure: And‐1‐Luc reporter HEK293 cells were dispensed at 2000 cells/5 μl/well in tissue culture treated white wall/solid bottom 1536‐well plates (Greiner Bio‐One North America, Monroe, NC, USA) using a Thermo Scientific Multidrop Combi (ThermoFisher Scientific, Inc.). After the cells were incubated in assay plates at 37°C for 5 h, 23 nl of compounds (LOPAC) was transferred into the assay plates using a Wako Pintool station (Wako Automation, San Diego, CA, USA). The assay plates were incubated at 37°C for 48 h, followed by the addition of 5 μl ONE‐Glo luciferase reagent (Promega, Madison, WI, USA) using a Flying Reagent Dispenser (Aurora Discovery, Carlsbad, CA, USA). After 30 min of incubation at room temperature, the luminescence intensity of the assay plates was quantified using a ViewLux plate reader (PerkinElmer, Shelton, CT, USA).
(§1) To evaluate whether And‐1 is required for tumor survival, we examined the dependence of a broad range of tumor cells on And‐1 by using dependency score analysis from DepMap (https://depmap.org/portal/). […] To identify And‐1 specific pharmacologic inhibitor, we established an HTS assay to identify small molecules that can inhibit And‐1 by inducing its degradation. To this end, we first established two stable cell lines, HEK293T‐And‐1‐Luc expressing And‐1 protein fused to a luciferase reporter gene, and HEK293T‐Luc expressing luciferase only (Figure 1B). HEK293T‐And‐1‐Luc cells allow us to monitor And‐1 protein levels by measuring luciferase activity in a high‐throughput manner. Using these cell lines, we conducted a screening for And‐1 inhibitors against a LOPAC small molecule library by using a quantitative HTS (qHTS) as we described previously.[46]
Background: In a reporter assay the amount or activity of a reporter protein is the signal.

Data set [2] has as its target T1, And‐1. Briefly: Immunoblot of And‐1 expression in IGROV1 cells. The data set is classed as cell-based. The conditions noted are these: read-out: IC50, And‐1 expression.
Description: (§2) The assay was as previously described.[45]
as §1
(A) Dependency score of WDHD1/And‐1 analyzed by DepMap. […] (B) Establishment of HEK293T‐And‐1‐Luc and HEK293T‐Luc cells for the high‐throughput screen (HTS). (C) Schematic diagram of quantitative HTS (qHTS) for And‐1 inhibitors. (D) Immunoblot analyses to detect And‐1 expression in IGROV1 cells treated with resveratrol at indicated concentrations. (E) Chemical structures of resveratrol and its three analogs as indicated. (F) Left, immunoblot analyses to detect And‐1 expression in IGROV1 cells treated with And‐1 inhibitors at the indicated concentration. Right, quantification of And‐1 expression shown in the left panel.

The test system of another data set is IGROV1 CR cells. Briefly: SRB cell viability assay, combination with cisplatin. The conditions noted are these: by combination index (CI < 1 synergism). Type of data set: cell-based, human. The procedure:
as §2
Synergy of each combination was indicated as combination index (CI) values. […] (C) Tumors of IGROV1 CR xenograft treated with control (vehicle), cisplatin (8 mg/kg/day intraperitoneally), CH3 (20 mg/kg/3days intraperitoneally), or a combination of CH3 and cisplatin for 3 weeks. Ruler scale is in centimeters. (D) Growth curves of IGROV1 CR xenografts. […] (E) IHC staining against And‐1 antibodies of tumor samples from four treated groups of mice. Scale bar: 50 μm. […] Ruler scale is in centimeters. (G) Growth curves of IGROV1 CR xenografts. […] (H) IHC staining against And‐1 antibodies of tumor samples from four treated groups of mice. Scale bar: 50 μm.

Data set [3] has as its system IGROV1 cells. Briefly: Flow cytometry cell cycle analysis (propidium iodide). Type of data set: cell-based, human. The conditions noted are these: 1 µM, FACS. From the text: And‐1 is involved in DNA replication in the S‐phase and is required for the S‐phase progression.[15] We assumed that And‐1 inhibitors should be able to inhibit DNA replication by targeting And‐1.
(§3) Supplementary Figure S1. Identification of novel And-1 inhibitors. […]
Molecular weight of each compound was indicated. (C) Flow cytometry

In data set [4] the test system is IGROV1 cells. Briefly: Immunofluorescence of CtIP recruitment to micro-irradiation induced DSB sites. The data set is classed as cell-based, human. The conditions noted are these: 1 µM. The procedure: as §3
siAnd-1. S: S phase. (D) Immunofluorescence assay to detect CtIP and γH2AX foci formation after CH3 […]
IGROV1 cells treated with DMSO, 1 […]
to immunostain γH2AX and CtIP. For each experiment, 50 cells were counted and the percentage of cells with co-localization of γH2AX and CtIP foci was determined. Data represent means ± SEM from three independent experiments. (E) HR reporter assay to detect HR repair efficiency in cells treated with CH3. […]

In another data set the test system is IGROV1 CR xenografts. Briefly: Cisplatin resistant IGROV1 CR xenograft in nude mice. The data set is classed as in vivo, mouse.
Details of data set [5]: method as in PMID 15779070. The conditions noted are these: due to rapid metabolism; cited from earlier work.
The mark [6] stands for this setting: reduction of luciferase activity, qHTS, average of 1 and 2, read-out: IC50 (uM) average.
[7] abbreviates: reduction of luciferase activity, qHTS, column 1, read-out: IC50 (uM) 1.
Where [8] appears, read: reduction of luciferase activity, qHTS, column 2, read-out: IC50 (uM) 2.
Setting [9] is: reduction of luciferase activity, qHTS, column 2.

Turning to `CCN(CC)CCOc1ccc(Nc2ncc3cc(-c4c(Cl)cccc4Cl)c(=O)n(C)c3n2)cc1` [PD-166285 hydrate], the IC50 (in general, the concentration that gives 50% inhibition) worked out at 3.03 µM at And‐1 [1] (setting [6]), 3.33 µM at And‐1 [1] (setting [7]) and 2.73 µM on And‐1 [1] (setting [8]).

Take `C=CCc1cccc(/C=N/NC(=O)CN2CCN(Cc3ccccc3)CC2)c1O` [PAC-1]: the IC50 was 21.3 µM on And‐1 [1] (setting [6]), 18.8 µM on And‐1 [1] (setting [7]) and 23.8 µM at And‐1 [1] (setting [8]).

As for `CNc1ccc2oc(C[C@H]3O[C@@]4(CC[C@H]3C)O[C@H]([C@H](C)C(=O)c3ccc[nH]3)[C@H](C)C[C@H]4C)nc2c1C(=O)O` [Calcimycin], the DC50 was found to be 8.32 µM on And‐1 [1] (setting [6]), 6.1 µM at And‐1 [1] (setting [7]) and 10.5 µM on And‐1 [1] (setting [8]).

As for `CC[C@@]1(O)C(=O)OCc2c1cc1n(c2=O)Cc2cc3c(CN(C)C)c(O)ccc3nc2-1` [Topotecan hydrochloride hydrate], the IC50 on And‐1 [1] (setting [7]) was found to be 0.61 µM. Also, the “IC50 (uM) 2” value against And‐1 [1] (setting [9]) was “inactive”.

Take `c1ccc2c(c1)[I+]c1ccccc1-2` [Diphenyleneiodonium chloride]: the figures for the DC50 at And‐1 [1] (read-out: IC50 (uM) 1), on And‐1 [1] (read-out: IC50 (uM) 2) and on And‐1 [1] (read-out: IC50 (uM) average) were 0.84 µM, 0.03 µM and 0.43 µM, respectively.

Take `O=C1C(SCCO)=C(SCCO)C(=O)c2ccccc21` [NSC 95397]: the IC50 at And‐1 [1] (setting [6]) was determined as 9.42 µM; at And‐1 [1] (setting [7]), 11.2 µM; on And‐1 [1] (setting [8]), 7.68 µM.

`Cc1c(-c2ccc(O)cc2)n(Cc2ccc(OCCN3CCCCCC3)cc2)c2ccc(O)cc12` [BZA, bazedoxifene acetate]: at And‐1 [2], the DC50 turned out to be 0.32 µM. Also, in the data set with IGROV1 CR cells, the “synergy with cisplatin to inhibit cell proliferation” value was “significant synergy with cisplatin”. For the same compound, the “percentage of cells in the S‐phase” value in the data set with IGROV1 cells [3] is “reduced the percentage of cells in the S‐phase”. For the same compound, the “recruitment of CtIP to DSB sites induced by micro‐irradiation” value in the data set on IGROV1 cells [4] is “significantly decreased”. In addition, the “expression of And‐1 in tumours (IHC)” value with IGROV1 CR xenografts is recorded as “suppressed expression of And‐1 in tumours”. Further, the “resistant tumour growth, combination with cisplatin vs cisplatin alone” value in the data set on IGROV1 CR xenografts (cisplatin 8 mg/kg + CH3 20 mg/kg or BZA 2 mg/kg, intraperitoneal, 3 weeks) is recorded as “significantly reduced resistant tumour growth”.

For the compound `Nc1ccn([C@@H]2O[C@H](CO)[C@@H](O)C2(F)F)c(=O)n1` [Gemcitabine hydrochloride], the DC50 at And‐1 [1] (setting [7]) was 0.02 µM. Also, the “IC50 (uM) 2” value on And‐1 [1] (setting [9]) is “inactive”.

For the compound `COc1cc2c(cc1O)CC[C@@H]1[C@@H]2CC[C@]2(C)[C@@H](O)CC[C@@H]12` [2-methoxyestradiol], the DC50 at And‐1 [1] (setting [7]) was determined as 1.67 µM. Besides, the “IC50 (uM) 2” value at And‐1 [1] (setting [9]) is “inactive”.

For `COCCOC(=O)C1=C(C)NC(C)=C(C(=O)OC/C=C/c2ccccc2)C1c1cccc([N+](=O)[O-])c1` (centres unmarked) [Cilnidipine], the DC50 at And‐1 [1] (setting [6]) was 21.1 µM; on And‐1 [1] (setting [7]), 22.9 µM; at And‐1 [1] (setting [8]) it was 19.3 µM.

Take `C/C=C(/C)C(=O)O[C@H]1C(C)=C2[C@H]([C@@H]1OC(=O)CCCCCCC)[C@@](C)(OC(C)=O)C[C@H](OC(=O)CCC)[C@@]1(O)[C@H]2OC(=O)[C@@]1(C)O` [Thapsigargin]: the DC50 on And‐1 [1] (setting [6]) amounted to 6.95 µM; on And‐1 [1] (setting [7]), 13.3 µM; at And‐1 [1] (setting [8]), 0.63 µM.

On to `Oc1ccc(/C=C/c2cc(O)cc(O)c2)cc1` [Resveratrol, 3,5,4′‐trihydroxy‐trans‐stilbene], for which the DC50 at And‐1 [1] (HEK293T‐And‐1‐Luc cells, qHTS, read-out: IC50, reduction of And‐1 levels (screening)) came out at 18.9 µM; at And‐1 [1] (setting [6]), 18.9 µM; on And‐1 [1] (setting [7]), 14.9 µM; at And‐1 [1] (setting [8]) it was 22.9 µM; on And‐1 [2] it was 16.7 µM. Moreover, the oral bioavailability result in data set [5] is given as “low oral bioavailability”.

Regarding `CC[n+]1c(/C=C/C=C2/N(C)c3ccccc3C2(C)C)sc2ccccc21` [AC-93253 iodide], the IC50 at And‐1 [1] (setting [6]) stood at 0.76 µM; at And‐1 [1] (setting [7]), 1.09 µM; at And‐1 [1] (setting [8]) it was 0.44 µM.

`CC[C@@]1(O)C(=O)OCc2c1cc1n(c2=O)Cc2cc3ccccc3nc2-1` [(S)-(+)-Camptothecin]: at And‐1 [1] (setting [7]), the IC50 is 0.73 µM. At And‐1 [1] (setting [9]), the “IC50 (uM) 2” value was “inactive”.
